Measurements reported in PubChem BioAssay AID651798 (Broad Institute, 2012).
Active and inactive are the calls of the source.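 How the source made its calls: active means fitted AC50 at or below twice the top valid dose, with signal falling as dose rises; inconclusive means flat fit between -30 and -70%, or poor fit; inactive means the rest, including rising effects.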

Biological target: Kelch-like ECH-associated protein 1 (Homo sapiens) (UniProt Q14145)
Experiment: disruptors of Keap1 Kelch-Nrf2 peptide binding – biochemical, fluorescence polarization, dry powder samples, dose response (AID 651798)
Conditions: Keap1 Kelch/FITC-Nrf2 peptide fluorescence polarization

Kelch-like ECH-associated protein 1 (Homo sapiens), sequence (Q14145 whole entry, looked up): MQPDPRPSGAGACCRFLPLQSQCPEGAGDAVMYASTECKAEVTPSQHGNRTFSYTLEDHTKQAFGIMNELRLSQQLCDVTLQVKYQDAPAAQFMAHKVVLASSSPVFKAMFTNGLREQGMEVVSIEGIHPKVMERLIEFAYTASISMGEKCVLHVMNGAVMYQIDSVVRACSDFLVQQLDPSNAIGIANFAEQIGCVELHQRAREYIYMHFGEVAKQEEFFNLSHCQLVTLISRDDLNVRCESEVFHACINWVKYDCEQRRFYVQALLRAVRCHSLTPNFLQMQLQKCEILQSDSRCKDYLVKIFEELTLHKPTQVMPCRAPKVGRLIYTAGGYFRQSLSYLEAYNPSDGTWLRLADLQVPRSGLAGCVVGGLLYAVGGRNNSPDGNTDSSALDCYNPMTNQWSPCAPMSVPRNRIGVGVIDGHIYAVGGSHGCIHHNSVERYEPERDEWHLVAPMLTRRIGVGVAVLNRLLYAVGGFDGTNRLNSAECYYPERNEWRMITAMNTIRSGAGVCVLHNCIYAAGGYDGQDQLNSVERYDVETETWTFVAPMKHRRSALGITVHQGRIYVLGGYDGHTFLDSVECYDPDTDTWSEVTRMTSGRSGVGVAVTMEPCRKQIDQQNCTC

SMILES	AC50
O=C(O)[C@H]1CCCC[C@H]1C(=O)N1CCC2=C(CCCC2)C1CN1C(=O)c2ccccc2C1=O (stereo partly specified)	> 100 µM (inactive)
CC(C)OC(=O)C(C(=O)C(F)(F)F)c1cc(NS(=O)(=O)c2ccccc2)c2ccccc2c1O (stereo unspecified)	21.8 µM
COC(=O)C(C(=O)OC)c1cc(NS(=O)(=O)c2c(C)cc(C)cc2C)c2ccccc2c1O	34.2 µM
Cc1cc(C)c(S(=O)(=O)Nc2cc(C(C(=O)OC(C)C)C(=O)C(F)(F)F)c(O)c3ccccc23)c(C)c1 (stereo unspecified)	0.673 µM
Cc1ccc(S(=O)(=O)Nc2cc(C(C(=O)OC(C)C)C(=O)C(F)(F)F)c(O)c3ccccc23)cc1 (stereo unspecified)	7.25 µM
O=C(NCCc1ccccc1)c1ccccc1C(=O)NC[C@@H]1c2ccccc2CCN1C(=O)C1CCCCC1C(=O)O (stereo partly specified)	> 100 µM (inactive)
CC(=O)Nc1cc(NS(=O)(=O)c2c(C)cc(C)cc2C)c2ccccc2c1O	15.2 µM
O=C(O)[C@H]1C2C=CC(C2)[C@H]1C(=O)N1CCc2ccccc2C1CN1C(=O)c2ccccc2C1=O (stereo partly specified)	> 100 µM (inactive)
Cc1ccc(S(=O)(=O)NC(=O)[C@@H]2c3ccccc3CCN2C(=O)[C@@H]2CCCC[C@@H]2C(=O)O)cc1	> 100 µM (inactive)
Cc1ccc(S(=O)(=O)Nc2cc(C(C(=O)OC(C)C)C(=O)C(F)(F)F)c(O)c3ccccc23)c(C)c1 (stereo unspecified)	2.26 µM
O=C(O)C1CCCCC1C(=O)N1CCc2ccccc2C1CN1C(=O)Cc2ccccc2C1=O (stereo unspecified)	> 100 µM (inactive)
O=C(O)Cc1ccccc1C(=O)N1CCc2ccccc2[C@H]1CN1C(=O)c2ccccc2C1=O	28.3 µM
Cc1ccccc1S(=O)(=O)Nc1cc(C(C(=O)OC(C)C)C(=O)C(F)(F)F)c(O)c2ccccc12 (stereo unspecified)	3.2 µM
O=C(O)C1CCCCC1C(=O)N1CCc2ccccc2C1CN1C(=O)[C@H]2CCCC[C@H]2C1=O (stereo partly specified)	> 100 µM (inactive)

Same assay, conditions: Keap1 Kelch/FITC-Nrf2 peptide fluorescence polarization; at 12 µM (top of the series)

SMILES	activity change, negative = inhibition
O=C1c2ccccc2C(=O)N1CC1c2ccccc2CCN1C(=O)Cc1ccccc1 (stereo unspecified)	inactive

Same assay, conditions: Keap1 Kelch/FITC-Nrf2 peptide fluorescence polarization; at 50 µM (top of the series)

SMILES	activity change, negative = inhibition
O=C(O)CCC(=O)N1CCc2ccccc2C1CN1C(=O)c2ccccc2C1=O (stereo unspecified)	inactive
O=C(O)[C@H]1CCCC[C@H]1C(=O)N1CCc2ccccc2C1CCN1C(=O)c2ccccc2C1=O (stereo partly specified)	inactive
O=C(NC[C@@H]1c2ccccc2CCN1C(=O)[C@@H]1CCCC[C@@H]1C(=O)O)c1ccc(CN2CCOCC2)cc1	inactive
O=C(O)[C@H]1CCCC[C@H]1C(=O)N1CCC2=C(CCCC2)C1CN1C(=O)c2ccccc2C1=O (stereo partly specified)	inactive
C[C@@H](NC(=O)C1CCCC[C@H]1C(=O)O)c1ccccc1 (mixture of isomers)	inactive
Cc1cc(C)c(S(=O)(=O)Nc2nc(C(C(=O)OC(C)C)C(=O)C(F)(F)F)nc3ccccc23)c(C)c1 (stereo unspecified)	inactive
O=C(O)C1CCCCC1C(=O)N1CCc2ccccc2[C@H]1C(=O)NC12CC3CC(CC(C3)C1)C2 (stereo partly specified)	inactive
O=S(=O)(Nc1nc(NCC2CCCCC2)nc2ccccc12)c1ccccc1	inactive
Cc1ccc(S(=O)(=O)NNc2nc(C(C(=O)OC(C)C)C(=O)C(F)(F)F)nc3ccccc23)cc1 (stereo unspecified)	inactive
COC(=O)[C@@H]1CCCC[C@@H]1C(=O)N1CCc2ccccc2[C@H]1CN1C(=O)c2ccccc2C1=O	inactive
O=C(O)[C@H]1CCCC[C@H]1C(=O)N1CCc2ccccc2[C@H]1CNS(=O)(=O)c1ccccc1	inactive
NC(=O)[C@H]1CCCC[C@H]1C(=O)N1CCc2ccccc2[C@H]1CN1C(=O)c2ccccc2C1=O	inactive
CCOC(=O)C(C(=O)OCC)c1cc(CNS(=O)(=O)c2ccc(C)cc2C)c2ccccc2n1	inactive
O=C(O)[C@H]1CCCC[C@H]1C(=O)N1CCc2ccccc2[C@H]1CNS(=O)(=O)c1ccc([N+](=O)[O-])cc1	inactive
COC(=O)C1CCCCC1C(=O)N1CCc2ccccc2C1CN1C(=O)c2ccccc2C1=O (stereo unspecified)	inactive
CC(C)CNc1nc(NS(=O)(=O)c2ccccc2)c2ccccc2n1	inactive
O=C(O)[C@H]1CCCC[C@H]1C(=O)N1CCc2ccccc2[C@H]1CNc1nc(Cl)nc2ccccc12	inactive
CCOC(=O)Cc1nc(NS(=O)(=O)c2c(C)cc(C)cc2C)c2ccccc2n1	inactive
Cc1cc(C)c(S(=O)(=O)Nc2nc(NCCO)nc3ccccc23)c(C)c1	inactive

SMILES	activity change, negative = inhibition
O=C(O)C1CCCCC1C(=O)N1CCc2ccccc2C1c1ccccc1 (stereo unspecified)	inactive
O=C(O)C1CCCCC1C(=O)Nc1ccccc1CN1C(=O)c2ccccc2C1=O (stereo unspecified)	inactive
COc1ccc(CCN=C2C=C(NS(=O)(=O)c3c(C)cc(C)cc3C)c3ccccc3C2=O)cc1	inactive
Cc1ccc(S(=O)(=O)NNc2nc(N3CC(O)CC3C(=O)O)nc3ccccc23)cc1 (stereo unspecified)	inactive
O=C(NCCCN1CCOCC1)c1ccccc1C(=O)NC[C@@H]1c2ccccc2CCN1C(=O)C1CCCCC1C(=O)O (stereo partly specified)	inactive
O=C(O)c1ccccc1C(=O)N1CCc2ccccc2C1CN1C(=O)c2ccccc2C1=O (stereo unspecified)	inactive
O=C(Oc1cc(CN2C(=O)c3ccccc3C2=O)c2ccccc2[n+]1[O-])c1cccc(Cl)c1	inactive
COC(=O)[C@@H]1CCCC[C@@H]1C(=O)N1CCc2ccccc2[C@@H]1CN1C(=O)c2ccccc2C1=O	inactive
O=C1c2ccccc2C(=O)N1C[C@@H]1c2ccccc2CCN1C(=O)C1CCCCC1	inactive
O=C1c2ccccc2C(=O)N1C[C@H]1NCCc2ccccc21	inactive
O=C(O)CCCC(=O)N1CCc2ccccc2C1CN1C(=O)c2ccccc2C1=O (stereo unspecified)	inactive
O=C1c2ccccc2C(=O)N1C[C@@H]1c2ccccc2CCN1C(=O)OCc1ccccc1	inactive
CCOC(=O)C(C(=O)OCC)c1cc(CN2C(=O)c3ccccc3C2=O)c2ccccc2n1	inactive
O=C(O)[C@@H]1CCCN1C(=O)N1CCc2ccccc2[C@H]1CN1C(=O)c2ccccc2C1=O	inactive
Cc1ccc(S(=O)(=O)NC[C@@H]2c3ccccc3CCN2C(=O)[C@@H]2CCCC[C@@H]2C(=O)O)c(C)c1	inactive
Cc1ccc(S(=O)(=O)NC2=CC(=N[C@@H](C)C(=O)OC(C)(C)C)C(=O)c3ccccc32)c(C)c1	inactive
Cc1ccc(S(=O)(=O)NC(=O)[C@@H]2c3ccccc3CCN2C(=O)[C@@H]2CCCC[C@@H]2C(=O)O)cc1	inactive
O=C(NC[C@@H]1c2ccccc2CCN1C(=O)[C@@H]1CCCC[C@@H]1C(=O)O)OCC1c2ccccc2-c2ccccc21	inactive
O=C(O)[C@H]1CCCC[C@H]1C(=O)NC(CN1C(=O)c2ccccc2C1=O)c1ccccc1 (stereo partly specified)	inactive

SMILES	activity change, negative = inhibition
O=C(NC[C@@H]1c2ccccc2CCN1C(=O)[C@@H]1CCCC[C@@H]1C(=O)O)c1ccc(CCl)cc1	inactive
CCOC(=O)C(C(=O)OCC)c1nc(NS(=O)(=O)c2c(C)cc(C)cc2C)c2ccccc2n1	inactive
O=C(O)C1CCCCC1C(=O)N1CCc2ccccc2[C@H]1C(=O)NCCc1ccccc1 (stereo partly specified)	inactive
O=C1c2ccccc2C(=O)N1CC1=NCCc2ccccc21	inactive
COC(=O)CNc1nc(NS(=O)(=O)c2c(C)cc(C)cc2C)c2ccccc2n1	inactive
O=C(O)C1CCCCC1C(=O)N1CCCCC1CN1C(=O)c2ccccc2C1=O (stereo unspecified)	inactive
COc1ccccc1CCNC(=O)[C@@H]1c2ccccc2CCN1C(=O)C1CCCCC1C(=O)O (stereo partly specified)	inactive
Cc1cc(C)c(S(=O)(=O)Nc2ncnc3ccccc23)c(C)c1	inactive
O=C(O)CC(=O)N1CCc2ccccc2C1CN1C(=O)c2ccccc2C1=O (stereo unspecified)	inactive
O=C(Cc1ccccc1)NC[C@@H]1c2ccccc2CCN1C(=O)[C@@H]1CCCC[C@@H]1C(=O)O	inactive
O=C(O)c1ccccc1C(=O)NC[C@@H]1c2ccccc2CCN1C(=O)[C@@H]1CCCC[C@@H]1C(=O)O	inactive
C=CC(=O)NC[C@@H]1c2ccccc2CCN1C(=O)[C@@H]1CCCC[C@@H]1C(=O)O	inactive
O=C(NC[C@@H]1c2ccccc2CCN1C(=O)[C@@H]1CCCC[C@@H]1C(=O)O)c1ccccc1CO	inactive
O=C(O)[C@H]1CCCC[C@H]1C(=O)N1CCc2ccccc2C1 (racemic)	inactive
Cc1cc(C)c(S(=O)(=O)Nc2cc(C(C(=O)OCc3ccccc3)C(=O)OCc3ccccc3)c(O)c3ccccc23)c(C)c1	inactive
Cc1cc(C)c(S(=O)(=O)Nc2nc(N(C)C)nc3ccccc23)c(C)c1	inactive
COC(=O)[C@H]1CCCC[C@H]1C(=O)N1CCc2ccccc2[C@H]1CN1C(=O)c2ccccc2C1=O	inactive
C[C@H](NC(=O)C1CCCC[C@H]1C(=O)O)c1ccccc1 (mixture of isomers)	inactive
